Measured values: paper PMC8119466, “A screen of FDA-approved drugs identifies inhibitors of protein tyrosine phosphatase 4A3 (PTP4A3 or PRL-3)” (Scientific Reports, 2021)
Where a name gives a salt, the structure may show the parent alone. Read-outs that look alike come from different tables or passages of the source.

Assays:
Assay type in all cases: biochemical
[1] = target: T1, recombinant PRL-2 (Homo sapiens, UniProt Q12974); assay: In vitro phosphatase assay (DiFMUP hydrolysis), PRL-2;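 note: PRL-2 activity read as DiFMUP hydrolysis after 20 min at room temperature with drug, enzyme first pre-reduced at 4 °C for 20 min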
T1 construct: 6xHis (N, cleaved yes); made in house; host or cells: E. coli One Shot BL21 Star
T1 sequence (Q12974 1-167): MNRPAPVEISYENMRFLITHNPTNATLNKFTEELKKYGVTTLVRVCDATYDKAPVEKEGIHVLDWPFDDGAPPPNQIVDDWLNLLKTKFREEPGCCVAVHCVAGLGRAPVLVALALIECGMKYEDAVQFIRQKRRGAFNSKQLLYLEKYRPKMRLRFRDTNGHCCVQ

[2] = target: T2, recombinant PRL-3 (Homo sapiens, UniProt O75365); assay: In vitro phosphatase assay (DiFMUP hydrolysis), PRL-3; note: test concentration or dose not given here
T2 construct: 6xHis (N, cleaved yes); made in house; host or cells: E. coli One Shot BL21 Star
T2 sequence (O75365 whole entry): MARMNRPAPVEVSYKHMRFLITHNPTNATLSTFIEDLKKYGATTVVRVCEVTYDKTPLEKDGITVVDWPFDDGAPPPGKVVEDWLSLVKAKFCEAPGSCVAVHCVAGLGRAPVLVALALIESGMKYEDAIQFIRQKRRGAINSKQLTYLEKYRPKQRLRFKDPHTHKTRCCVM

[3] = target: T3, recombinant PRL-1 (Homo sapiens, UniProt Q93096); assay: In vitro phosphatase assay (DiFMUP hydrolysis), PRL-1; note: test concentration or dose not given here
T3 construct: 6xHis (N, cleaved yes); made in house; host or cells: E. coli One Shot BL21 Star
T3 sequence (Q93096 1-173): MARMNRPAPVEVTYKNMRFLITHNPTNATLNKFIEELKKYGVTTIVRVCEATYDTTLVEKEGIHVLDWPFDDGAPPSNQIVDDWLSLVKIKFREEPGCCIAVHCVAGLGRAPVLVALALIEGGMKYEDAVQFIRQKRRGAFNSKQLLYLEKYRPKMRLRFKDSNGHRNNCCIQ

[4] = FDA-approved drug screen, compared to DMSO

Compound	% Phosphatase Activity (compared to DMSO) PRL-2 [1, 4]	% Phosphatase Activity (compared to DMSO) PRL-3 [2, 4]	% Phosphatase Activity (compared to DMSO) PRL-1 [3, 4]	% Phosphatase Activity (compared to DMSO) PRL-2 [1]	% Phosphatase Activity (compared to DMSO) PRL-3 [2]	% Phosphatase Activity (compared to DMSO) PRL-1 [3]
CCOC(=O)C1=C[C@@H](OC(CC)CC)[C@H](NC(C)=O)[C@@H](N)C1 [Oseltamivir Phosphate]	102%	94%	91%	–	–	–
OCCOc1ccc(/C(=C(/CCCl)c2ccccc2)c2ccccc2)cc1 [Ospemifene]	–	–	–	109%	81%	96%
CCNC1(C(N)=O)CCN(c2ncnc3c2nc(-c2ccccc2Cl)n3-c2ccc(Cl)cc2)CC1.Cl [Otenabant (CP-945598) HCl]	78%	97%	96%	–	–	–
CCCCCCCCOc1ccccc1C(=O)Nc1ccc(C(=O)OCC[N+](C)(CC)CC)cc1 [Otilonium Bromide]	105%	111%	102%	–	–	–
Cc1onc(-c2ccccc2)c1C(=O)N[C@@H]1C(=O)N2[C@@H]1SC(C)(C)[C@@H]2C(=O)[O-].O.[Na+] [Oxacillin sodium monohydrate]	90%	83%	98%	–	–	–
O=C(O)C(=O)O.[NH-][C@@H]1CCCC[C@H]1[NH-].[Pt+2] [Oxaliplatin]	97%	76%	92%	–	–	–
O=C(O)CCc1nc(-c2ccccc2)c(-c2ccccc2)o1 [Oxaprozin]	106%	71%	96%	–	–	–
NC(=O)N1c2ccccc2CC(=O)c2ccccc21 [Oxcarbazepine]	112%	89%	104%	–	–	–
CCN(CC)CCOCCOC(=O)C(CC)(CC)c1ccccc1.O=C(O)CC(O)(CC(=O)O)C(=O)O [Oxeladin Citrate]	88%	89%	90%	–	–	–
COC(=O)Nc1nc2ccc([S+]([O-])c3ccccc3)cc2[nH]1 (stereo not drawn) [Oxfendazole]	102%	92%	84%	–	–	–
NC(=O)CN1CC(O)CC1=O (stereo not drawn) [Oxiracetam]	122%	71%	94%	–	–	–
COc1ccc(C(=O)c2ccccc2)c(O)c1 [Oxybenzone]	81%	93%	99%	–	–	–
CCCCOc1cc(C(=O)OCCN(CC)CC)ccc1N [Oxybuprocaine HCl]	103%	93%	97%	–	–	–
CCN(CC)CC#CCOC(=O)C(O)(c1ccccc1)C1CCCCC1 (stereo not drawn) [Oxybutynin chloride]	85%	75%	88%	–	–	–
CCN(CC)CC#CCOC(=O)C(O)(c1ccccc1)C1CCCCC1 (stereo not drawn) [Oxybutynin]	99%	118%	91%	–	–	–
Cc1cc(C(C)(C)C)c(O)c(C)c1CC1=NCCN1 [Oxymetazoline hydrochloride]	118%	82%	99%	–	–	–
CN(C)[C@@H]1C(=O)C(C(N)=O)=C(O)[C@@]2(O)C(=O)C3=C(O)c4c(O)cccc4[C@@](C)(O)[C@H]3[C@H](O)[C@@H]12 [Oxytetracycline (Terramycin)]	73%	74%	58%	–	–	–
